# Experimental data taken from paper PMC9131871, “Impact of Micropolymorphism Outside the Peptide Binding Groove in the Clinically Relevant Allele HLA-C*14 on T Cell Responses in HIV-1 Infection” (Journal of Virology, 2022).
# Key:
# [1] = test system: PBMCs from HIV-1-infected HLA-C*14:02+ or HLA-C*14:03+ individuals; assay: ex vivo IFN-γ ELISPOT assay; format: cell-based, human; settings: for Responder (number), 1402+: 30 HLA-C*14:02+ treatment-naive individuals; for Responder (number), 1402+ / Responder (number), 1403+: positive >100 spots/10^6 PBMCs; for Responder (number), 1403+: 30 HLA-C*14:03+ treatment-naive individuals; for frequency of individuals showing responses of >100 spot-forming cells/10^6 PBMCs: 60 HLA-C*14:02/C*14:03 treatment-naive individuals (30 + 30)
# [2] = test system: .221-C1402 / .221-C1403 cells pulsed with peptide; assay: ICS assay, peptide-specific bulk T cells against peptide-pulsed .221 cells; format: cell-based, human; settings: IFN-γ ICS, 1 μM peptide (autologous allele) or 0.01 to 10 nM (cross-recognition), triplicate assays
# Method: To confirm the HLA-C*14-restriction of the T cell responses to the 6 NL4-3-derived peptides, we expanded T cells specific for these peptides by stimulating peripheral blood mononuclear cells (PBMCs) from responders with each peptide (HLA-C*14:02^+ responders for Gag AM9, Pol KM9, and Nef AL9 and HLA-C*14:03^+ responders for Gag LY9, Nef IF8, and Nef YT9). The cultured T cells were then tested for their ability to recognize the peptides presented on 721.221 cells expressing HLA-C*14:02 (.221-C1402 cells) or HLA-C*14:03 (.221-C1403 cells) and 721.221 cells by intracellular cytokine staining (ICS) assay. Both cell lines expressed similarly high levels of HLA-C*14, although the surface expression level of HLA-C*14 on the HLA-C*14:03-transfected line was higher than that on the HLA-C*14:02 line (the ratio of relative expression of HLA-C*14:03 to that of HLA-C*14:02 was approximately 1.3:1) (Fig. 4A). […] We further analyzed cross-recognition of .221-C1402 and .221-C1403 cells prepulsed with peptides at a range of different concentrations by T cells from HLA-C*14:02^+ and HLA-C*14:03^+ individuals.
# FIG 4 HLA-C*14:02- and HLA-C*14:03-restricted T cell responses to 6 putative epitope peptides. (A) Histogram plots showing surface expression of HLA-C*14:02 or HLA-C*14:03 on .221-C14:02 or .221-C14:03 cells. The relative expression level of HLA-C*14:02 versus HLA-C*14:03 [(MFI of .221-C1402 stained with DT9 − MFI of .221-C1402 stained with the second antibody)/(MFI of .221-C1403 stained with DT9 − MFI of .221-C1403 stained with the second antibody)] is 1.3. (B and C) Gag LY9-, Gag AM9-, Pol KM9-, Nef YT9-, Nef IF8-, and Nef AL9-specific bulk T cell populations were expanded by stimulating responders’ PBMCs with each peptide. The ability of these peptide-specific bulk T cells to recognize peptide-pulsed .221 cells expressing HLA-C*14 molecules was then analyzed by ICS assay. (B) T cell recognition of .221 cells expressing the patient’s autologous HLA-C*14 allele and non-HLA-C*14-expressing cells pulsed with 1 μM peptide. (C) T cell recognition of HLA-C*14:02 or HLA-C*14:03-expressing cells pulsed with the indicated peptides at concentrations from 0.01 to 10 nM was analyzed by an ICS assay. The results are means and SDs from triplicate assays.
# PBMCs from HIV-1-infected individuals were stimulated with 1 μM concentrations of the corresponding peptides and then cultured for 2 weeks in RPMI 1640 medium (Thermo Fisher) containing 10% FCS, 20 ng/mL of human recombinant interleukin 2 (rIL-2) (ProSpec), 1× minimal essential medium (MEM) nonessential amino acid solution (Gibco), and 1 mM sodium pyruvate solution (Gibco). Following T cell expansion, .221-C1402 cells or .221-C1403 cells prepulsed with each HIV-1 peptide or .221-C1402 cells or .221-C1403 cells infected with HIV-1 NL4-3 were added to a 96-well plate together with bulk-cultured T cells, and the cells were incubated for 4 h at 37°C with brefeldin A ([…]). The cells were then stained with Pacific blue (PB)-labeled anti-CD3 MAb (BioLegend), FITC-labeled anti-CD19 MAb (BioLegend), allophycocyanin (APC)-labeled anti-CD8 MAb (BioLegend), and a LIVE/DEAD fixable near-infrared (IR) dead-cell staining kit (Invitrogen) and subsequently fixed with 4% paraformaldehyde and incubated in permeabilization buffer (0.1% saponin–5% FBS–PBS). Thereafter, the cells were stained with phycoerythrin (PE)-labeled anti-IFN-γ MAb (BioLegend). Staining data were acquired on a FACSCanto II instrument (BD Biosciences) and analyzed using FlowJo 10.7.1 software.
Sequence,"number of individuals with response, of 60 HLA-C*14+ Japanese individuals ([1]; 1 μM peptide, relatively strong responses)","Responder (number), 1402+ ([1]; 1 μM peptide)","Responder (number), 1403+ ([1]; 1 μM peptide)",frequency of individuals showing responses of >100 spot-forming cells/10^6 PBMCs ([1]; 1 μM peptide),recognition of peptide-pulsed .221 cells by peptide-specific bulk T cells [2],"magnitude of T cell responses, compared between groups ([1]; 60 individuals, HLA-C*14:02+ versus HLA-C*14:03+ (or Gag versus Pol/Nef epitopes), Mann-Whitney test)"
LYNTIAVLY [Gag LY9],11,6,5,18%,recognized the epitope peptide-pulsed .221 cells expressing their autologous HLA-C*14 allele,–
AFSPEVIPM [Gag AM9],–,16,18,56%,recognized the epitope peptide-pulsed .221 cells expressing their autologous HLA-C*14 allele,–
IYHTQGYF [Nef IF8],–,6,6,20%,recognized the epitope peptide-pulsed .221 cells expressing their autologous HLA-C*14 allele,–
KYHSNWRAM [Pol KM9],–,4,0,6.6%,recognized the epitope peptide-pulsed .221 cells expressing their autologous HLA-C*14 allele,significantly higher
YFPDWQNYT [Nef YT9],–,12,7,31%,recognized the epitope peptide-pulsed .221 cells expressing their autologous HLA-C*14 allele,–
AFHHVAREL [Nef AL9],–,2,1,5%,recognized the epitope peptide-pulsed .221 cells expressing their autologous HLA-C*14 allele,–
